In ChEMBL document CHEMBL4184182, “Studies on interactions of carbazole derivatives with DNA, cell image, and cytotoxicity” (Bioorg Med Chem, 2018):
Calls of active or inactive are those of the source. No cut-off for these calls is given here.

Experiments:
[1] = Drug uptake in fixed human HepG2 cell nucleus at 10 uM after 2.5 hrs by confocal microscopic method; format: ADME, subcellular; conditions: hepg2, 2.5 h
[2] = Selectivity ratio of DC50 for 26-mer duplex DNA (unknown origin) to DC50 for human telomeric G-quadruplex DNA in presence of sodium ion
[3] = tested on: Quadruplex DNA; assay: Binding affinity to c-Myc G-quadruplex DNA (unknown origin) assessed as red shift at 15 uM after 5 mins by UV-Visible absorbance titration method; format: nucleic-acid assay
[4] = tested on: Quadruplex DNA; assay: Binding affinity to human telomeric G-quadruplex DNA assessed as compound fluorescence life time at 5 uM after 5 mins in presence of potassium ion by fluorescence titration method (reference value: 3.626 nanoseconds); format: nucleic-acid assay
[5] = tested on: Quadruplex DNA; assay: Binding affinity to Bcl2 G-quadruplex DNA (unknown origin) assessed as compound fluorescence life time at 5 uM after 5 mins by fluorescence titration method (reference value: 3.626 nanoseconds); format: nucleic-acid assay
[6] = tested on: Quadruplex DNA; assay: Binding affinity to human telomeric G-quadruplex DNA assessed as enhanced fluorescence time at 5 uM after 5 mins in presence of potassium ion by fluorescence titration assay relative to control; format: nucleic-acid assay
[7] = tested on: Quadruplex DNA; assay: Binding affinity to Bcl2 G-quadruplex DNA (unknown origin) assessed as emission maximum at 5 uM after 5 mins by fluorescence titration method (reference value: 559 nanometer); format: nucleic-acid assay
[8] = tested on: Quadruplex DNA; assay: Binding affinity to human telomeric G-quadruplex DNA assessed as hyperchromicity at 15 uM after 5 mins in presence of sodium ion by UV-Visible absorbance titration method; format: nucleic-acid assay
[9] = tested on: Quadruplex DNA; assay: Binding affinity to human telomeric G-quadruplex DNA assessed as emission maximum at 5 uM after 5 mins in presence of sodium ion by fluorescence titration method (reference value: 559 nanometer); format: nucleic-acid assay
[10] = tested on: Quadruplex DNA; assay: Binding affinity to Bcl2 G-quadruplex DNA (unknown origin) assessed as red shift at 15 uM after 5 mins by UV-Visible absorbance titration method; format: nucleic-acid assay
[11] = tested on: dsDNA; assay: Binding affinity to 26-mer duplex DNA (unknown origin) assessed as hyperchromicity at 15 uM after 5 mins by UV-Visible absorbance titration method; format: nucleic-acid assay
[12] = tested on: Quadruplex DNA; assay: Binding affinity to c-Kit G-quadruplex DNA (unknown origin) assessed as hyperchromicity at 15 uM after 5 mins by UV-Visible absorbance titration method; format: nucleic-acid assay
[13] = tested on: Quadruplex DNA; assay: Binding affinity to c-Myc G-quadruplex DNA (unknown origin) assessed as emission maximum at 5 uM after 5 mins by fluorescence titration method (reference value: 559 nanometer); format: nucleic-acid assay
[14] = tested on: Quadruplex DNA; assay: Binding affinity to c-Kit G-quadruplex DNA (unknown origin) assessed as absorption maximum at 5 uM after 5 mins by fluorescence titration method (reference value: 405 nanometer); format: nucleic-acid assay
[15] = tested on: Quadruplex DNA; assay: Binding affinity to Bcl2 G-quadruplex DNA (unknown origin) assessed as absorption maximum at 5 uM after 5 mins by fluorescence titration method (reference value: 405 nanometer); format: nucleic-acid assay
[16] = tested on: HepG2; assay: Induction of morphological changes in human HepG2 cells assessed as cellular clumping at 10 uM after 24 hrs; format: functional, cell-based
[17] = tested on: Quadruplex DNA; assay: Binding affinity to Bcl2 G-quadruplex DNA (unknown origin) assessed as enhanced fluorescence time at 5 uM after 5 mins by fluorescence titration assay relative to control; format: nucleic-acid assay
[18] = tested on: Calf thymus DNA; assay: Binding affinity to calf thymus DNA assessed as red shift at 15 uM after 5 mins by UV-Visible absorbance titration method; format: nucleic-acid assay; conditions: Bos taurus
[19] = tested on: Quadruplex DNA; assay: Binding affinity to human telomeric G-quadruplex DNA assessed as red shift at 15 uM after 5 mins in presence of sodium ion by UV-Visible absorbance titration method; format: nucleic-acid assay
[20] = tested on: Quadruplex DNA; assay: Binding affinity to c-Kit G-quadruplex DNA (unknown origin) assessed as absorption maximum at 5 uM after 5 mins by fluorescence titration method (reference value: 453 nanometer); format: nucleic-acid assay
[21] = tested on: Quadruplex DNA; assay: Binding affinity to c-Myc G-quadruplex DNA (unknown origin) assessed as compound fluorescence life time at 5 uM after 5 mins by fluorescence titration method (reference value: 0.192 nanoseconds); format: nucleic-acid assay
[22] = tested on: Quadruplex DNA; assay: Binding affinity to human telomeric G-quadruplex DNA assessed as emission maximum at 5 uM after 5 mins in presence of potassium ion by fluorescence titration method (reference value: 584 nanometer); format: nucleic-acid assay
[23] = tested on: Quadruplex DNA; assay: Binding affinity to Bcl2 G-quadruplex DNA (unknown origin) assessed as hyperchromicity at 10 uM after 5 mins by UV-Visible absorbance titration method; format: nucleic-acid assay
[24] = tested on: Quadruplex DNA; assay: Binding affinity to c-Myc G-quadruplex DNA (unknown origin) assessed as red shift at 10 uM after 5 mins by UV-Visible absorbance titration method; format: nucleic-acid assay
[25] = tested on: dsDNA; assay: Binding affinity to 26-mer duplex DNA (unknown origin) assessed as hyperchromicity at 10 uM after 5 mins by UV-Visible absorbance titration method; format: nucleic-acid assay
[26] = tested on: Quadruplex DNA; assay: Binding affinity to Bcl2 G-quadruplex DNA (unknown origin) assessed as red shift at 10 uM after 5 mins by UV-Visible absorbance titration method; format: nucleic-acid assay
[27] = tested on: Quadruplex DNA; assay: Binding affinity to human telomeric G-quadruplex DNA assessed as compound fluorescence life time at 5 uM after 5 mins in presence of sodium ion by fluorescence titration method (reference value: 0.192 nanoseconds); format: nucleic-acid assay
[28] = tested on: Quadruplex DNA; assay: Binding affinity to c-Kit G-quadruplex DNA (unknown origin) assessed as compound fluorescence life time at 5 uM after 5 mins by fluorescence titration method (reference value: 0.192 nanoseconds); format: nucleic-acid assay
[29] = tested on: Quadruplex DNA; assay: Binding affinity to Bcl2 G-quadruplex DNA (unknown origin) assessed as emission maximum at 5 uM after 5 mins by fluorescence titration method (reference value: 584 nanometer); format: nucleic-acid assay
[30] = tested on: Calf thymus DNA; assay: Binding affinity to calf thymus DNA assessed as red shift at 10 uM after 5 mins by UV-Visible absorbance titration method; format: nucleic-acid assay; conditions: Bos taurus
[31] = tested on: Quadruplex DNA; assay: Binding affinity to human telomeric G-quadruplex DNA assessed as emission maximum at 5 uM after 5 mins in presence of sodium ion by fluorescence titration method (reference value: 584 nanometer); format: nucleic-acid assay
[32] = tested on: HepG2; assay: Induction of morphological changes in human HepG2 cells assessed as debris formation at 5 uM after 24 hrs; format: functional, cell-based
[33] = tested on: dsDNA; assay: Binding affinity to 26-mer duplex DNA (unknown origin) assessed as emission maximum at 5 uM after 5 mins by fluorescence titration method (reference value: 584 nanometer); format: nucleic-acid assay
[34] = tested on: Quadruplex DNA; assay: Binding affinity to human telomeric G-quadruplex DNA assessed as absorption maximum at 5 uM after 5 mins in presence of potassium ion by fluorescence titration method (reference value: 453 nanometer); format: nucleic-acid assay
[35] = tested on: Quadruplex DNA; assay: Binding affinity to c-Kit G-quadruplex DNA (unknown origin) assessed as red shift at 10 uM after 5 mins by UV-Visible absorbance titration method; format: nucleic-acid assay
[36] = tested on: Quadruplex DNA; assay: Binding affinity to human telomeric G-quadruplex DNA assessed as compound fluorescence life time at 5 uM after 5 mins in presence of potassium ion by fluorescence titration method (reference value: 0.192 nanoseconds); format: nucleic-acid assay
[37] = tested on: Calf thymus DNA; assay: Binding affinity to calf thymus DNA assessed as hyperchromicity at 10 uM after 5 mins by UV-Visible absorbance titration method; format: nucleic-acid assay; conditions: Bos taurus
[38] = tested on: Quadruplex DNA; assay: Binding affinity to human telomeric G-quadruplex DNA assessed as absorption maximum at 5 uM after 5 mins in presence of sodium ion by fluorescence titration method (reference value: 453 nanometer); format: nucleic-acid assay

CCn1c2ccccc2c2cc(/C=C(\C#N)c3ccc[n+](C)c3)ccc21.[I-]
Drug uptake [1]: Active
Selectivity ratio [2]: 1.33
Activity [3]: 25 nm
Time [4]: 6.35 nanoseconds
Time [5]: 6.55 nanoseconds
fold change (FC) [6]: 11.2 to 20.6
Activity [7]: 541 nm
Activity [8]: 37.9%
Activity [9]: 545 nm
Activity [10]: 29 nm
Activity [11]: 27.7%
Activity [12]: 39.9%
Activity [13]: 547 nm
Activity [14]: 432 nm
Activity [15]: 434 nm
Activity [16]: Active
fold change (FC) [17]: 11.2 to 20.6
Activity [18]: 23 nm
Activity [19]: 17 nm

CCn1c2ccccc2c2cc(/C=C/c3sc4ccccc4[n+]3CC)ccc21.[I-]
Activity [20]: 493 nm
Time [21]: 1.68 nanoseconds
Activity [22]: 579 nm
Activity [23]: 52.6%
Activity [24]: 53 nm
Activity [25]: 24.6%
Activity [26]: 47 nm
Time [27]: 2.15 nanoseconds
Time [28]: 1.51 nanoseconds
Activity [29]: 586 nm
Activity [30]: 24 nm
Activity [31]: 578 nm
Activity [32]: Active
Activity [33]: 568 nm
Activity [34]: 474 nm
Activity [35]: 40 nm
Time [36]: 2.09 nanoseconds
Activity [37]: 40.1%
Activity [38]: 477 nm
